Non-standard residues stand in square brackets, D forms with d. Residues, ends and D or L forms follow the SMILES beside them. *: point of attachment. sY = N[C@@H](Cc1ccc(OS(=O)(=O)O)cc1)C(=O)O; OCH2CH2Ph = c1ccc(CCO*)cc1; Nle = CCCC[C@H](N)C(=O)O
T1: CCK1R (Homo sapiens, UniProt P32238)
T1 sequence (P32238 1-428): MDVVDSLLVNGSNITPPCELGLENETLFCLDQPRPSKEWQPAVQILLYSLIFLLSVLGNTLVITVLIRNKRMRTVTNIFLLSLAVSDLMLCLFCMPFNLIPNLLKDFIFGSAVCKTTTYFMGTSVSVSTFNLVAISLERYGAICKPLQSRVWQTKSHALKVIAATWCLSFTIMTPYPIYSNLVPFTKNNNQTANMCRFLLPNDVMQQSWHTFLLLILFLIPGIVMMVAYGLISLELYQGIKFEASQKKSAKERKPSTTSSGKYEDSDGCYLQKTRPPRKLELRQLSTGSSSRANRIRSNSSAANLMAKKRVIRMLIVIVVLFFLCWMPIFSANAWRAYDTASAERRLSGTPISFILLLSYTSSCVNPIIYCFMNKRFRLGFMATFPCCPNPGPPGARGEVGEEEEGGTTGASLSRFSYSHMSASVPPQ

T2: type 1 cholecystokinin receptor (CCK1R) (UniProt P32238)
T2 sequence: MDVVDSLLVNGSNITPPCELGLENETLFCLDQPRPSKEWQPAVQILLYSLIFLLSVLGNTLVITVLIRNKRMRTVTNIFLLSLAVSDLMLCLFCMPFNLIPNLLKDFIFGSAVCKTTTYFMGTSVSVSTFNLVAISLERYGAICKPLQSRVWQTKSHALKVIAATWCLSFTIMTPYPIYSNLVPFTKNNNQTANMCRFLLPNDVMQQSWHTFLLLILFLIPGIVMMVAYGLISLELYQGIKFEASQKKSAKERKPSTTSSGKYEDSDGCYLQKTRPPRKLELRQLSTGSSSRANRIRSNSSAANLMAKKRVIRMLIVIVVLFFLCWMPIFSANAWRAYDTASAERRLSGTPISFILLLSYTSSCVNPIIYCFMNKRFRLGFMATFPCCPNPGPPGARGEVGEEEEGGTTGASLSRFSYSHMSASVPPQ


How the values were obtained:
[1] = molecular target: T1, CCK1R; test: Intracellular calcium assay (Fura-8-AM) in CHO-CCK1R cells; type: cell-based; set-up: expressed in transfected cells; details: CHO-CCK1R cells, agonist alone; mean ± SEM
Description: Biological activity was quantified in the CHO cell lines described above using intracellular calcium assays that were performed, as previously described, using Fura-8-AM (AAT Bioquest, Pleasonton, CA, USA). Full agonist dose–response curves were performed along with determination of maximal responses to 0.1 mM ATP, targeting an endogenous receptor present on the parental cells. Concentration–response curves of peak intracellular calcium responses were analyzed and plotted as percentages of maximal responses using non-linear regression analysis in Prism 9.1 (GraphPad).

[2] = molecular target: T3, vasopressin-2 receptor (AVP2R) (Homo sapiens, UniProt P30518); test: AVP2R cAMP HTRF accumulation assay; type: cell-based; details: for AVP2R PAM (cAMP) Score (activity score = normalized Emax × pEC50) / Emax / EC50: CHO-K1 AVP2R cells; for Emax / EC50: PAM format with vasopressin, original hits: agonist and PAM data combined, average ± SD
T3 construct: expressed in transfected cells; host or cells: CHO-K1 (PAM format); HEK-293 (agonist format)
T3 sequence (P30518 whole entry): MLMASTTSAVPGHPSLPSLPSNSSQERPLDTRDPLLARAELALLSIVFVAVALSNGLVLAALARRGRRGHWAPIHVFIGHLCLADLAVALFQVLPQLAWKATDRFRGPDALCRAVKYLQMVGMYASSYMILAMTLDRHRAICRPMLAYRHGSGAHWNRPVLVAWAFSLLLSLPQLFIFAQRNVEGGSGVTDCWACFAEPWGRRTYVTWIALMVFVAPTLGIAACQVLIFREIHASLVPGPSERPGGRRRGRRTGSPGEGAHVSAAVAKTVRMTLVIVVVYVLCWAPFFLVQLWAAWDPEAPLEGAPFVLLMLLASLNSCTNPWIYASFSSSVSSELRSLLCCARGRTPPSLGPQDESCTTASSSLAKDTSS
Outline: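 CHO-K1 AVP2R cells (PAM format) or HEK-293 AVP2R cells (agonist format) incubated 30 min at room temperature with compounds and vasopressin in HBSS with 5 mM HEPES, 0.5 mM IBMX, 0.075% BSA. cAMP read by HTRF after 30 min; 16-point 2-fold dose–response in duplicate.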

[3] = molecular target: T1, CCK1R; test: IP-One accumulation TR-FRET assay, PAM format, HEK-293 CCK1R cells; type: cell-based; set-up: expressed in transfected cells; host or cells: HEK-293; details: for Emax: HEK293, relative to CCK control, average ± SD; for Emax / CCK1R PAM (IP-One) Score (activity score = normalized Emax × pEC50): HEK-293 CCK1R cells, PAM format; for CCK1R IP-One activity (in words): PAM and agonist formats
Outline: (§1)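 HEK-293 cells overexpressing CCK1R were plated overnight, then given compounds (top 50 µM, 16-point 2-fold) for 30 min at 37 °C. CCK stimulator with 50 mM LiCl (PAM format) or DMSO (agonist format) followed for 1 h. IP-One was read by TR-FRET; activity score = CCK-normalized Emax × pEC50.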

[4] = molecular target: T1, CCK1R; test: IP-One accumulation TR-FRET assay, agonist format, HEK-293 CCK1R cells; type: cell-based; set-up: expressed in transfected cells; host or cells: HEK-293; details: for Emax: HEK293, relative to CCK control, average ± SD, read-out: CCK1R Ago (IP-One) Emax
Outline: as §1

[5] = molecular target: T2, type 1 cholecystokinin receptor (CCK1R)

| Molecule | pEC50 agonist-induced intracellular calcium response [1] | AVP2R PAM (cAMP) Score (activity score = normalized Emax × pEC50) ([2]; PAM format) | Emax [2] [%] | Emax [3] [%] | CCK1R PAM (IP-One) Score (activity score = normalized Emax × pEC50) [3] | CCK1R Ago (IP-One) Score (activity score = normalized Emax × pEC50) [4] | Emax [4] [%] | EC50 [2] [µM] | CCK1R IP-One activity (in words) [3] | AVP2R cAMP response (in words) ([2]; PAM format) | pEC50 of intracellular calcium response (Fura-8-AM), CHO-CCK1R cells [5] | pEC50 of intracellular calcium response (Fura-8-AM), CHO-CCK1R cells, with 10 µM hit 1 [5] | pEC50 of intracellular calcium response (Fura-8-AM), CHO-CCK1R cells, with 10 µM hit 6 [5] |
| --- | --- | --- | --- | --- | --- | --- | --- | --- | --- | --- | --- | --- | --- |
| CCCC[C@H](NC(=O)[C@H](Cc1ccc(OS(=O)(=O)O)cc1)NC(=O)[C@H](CC(=O)O)NC(=O)CNC(=O)[C@H](N)Cc1ccc(O)cc1)C(=O)NCC(=O)N[C@@H](Cc1c[nH]c2ccccc12)C(=O)N[C@@H](CCCC)C(=O)N[C@@H](CC(=O)O)C(=O)OCCc1ccccc1 [CCK-OPE, D-Tyr-Gly-[(Nle^28,31)CCK-26-32]-phenethyl ester, reference compound] (H-[dY]GD[sY][Nle]GW[Nle]D-OCH2CH2Ph; N-terminus assumed) | 7.3 ± 0.2 | – | – | – | – | – | – | – | – | – | – | – | – |
| CCOC(=O)N1CCN(c2ncnc3c2oc2nc(CC(C)C)c4c(c23)CCCC4)CC1 [CMP-55] | – | 0 | 0 | 0 | 0 | 0 | 0 | – | – | – | – | – | – |
| CC(Sc1ncnc2c1sc1nc(N3CCOCC3)c3c(c12)CCCC3)C(=O)O (centres unmarked) [CMP-59] | – | 0.93 | 20 | – | – | 0 | 0 | 22.3 ± 7.2 | displayed no effects | – | – | – | – |
| c1nc(N2CCCC2)c2sc3nc(N4CCOCC4)c4c(c3c2n1)CCCC4 [CMP-64] | – | 0 | 0 | – | – | 0 | 0 | – | significantly diminished responses | – | – | – | – |
| O=C(CSc1ncnc2c1sc1nc(N3CCOCC3)c3c(c12)CCCC3)NCc1ccco1 [CMP-65] | – | 4.78 | 96 ± 5 | 0 | 0 | 0 | 0 | 10 ± 1.7 | – | strong activation of AVP2R-mediated cAMP accumulation | – | – | – |
| D-Tyr-Gly-[(Nle^28,31)CCK-26-32]-phenethyl ester (peptide) | – | – | – | – | – | – | – | – | – | – | 7.3 | 8 | 8.1 |
| KAPSGRMSIVKNLQNLDPSHRISDRDYMGWMDF [CCK-33] | – | – | – | – | – | – | – | – | – | – | 9.6 | 10.7 | 10.7 |
